# According to patent US9980943B2, “Methods of treating muscular dystrophy” (BOARD OF REGENTS OF THE NEVADA SYSTEM OF HIGHER EDUCATION, …, priority 2013, dated 2018):
# Assays:
# Assay type in all cases: cell-based, mouse
# [1] = system: α7 integrin (LacZ reporter in α7+/LacZ myotubes); test: Myotube α7 integrin FDG assay (Burkin assay in myotubes, 96-well); conditions: for Burkin Assay in Myotubes, value relative to DMSO: SU9516 analogs, 96-well, N=3-6
# [2] = system: β-galactosidase in CMV-LacZ C2C12 myoblasts; test: CMV-LacZ secondary screen in C2C12 myoblasts (β-Gal stabilizing assay); conditions: for CMV-LACZ in Myoblasts (β-galactosidase activity relative to DMSO): CMV-LacZ C2C12 myoblasts; for CMV-LACZ in Myoblasts, value relative to DMSO: SU9516 analogs, C2C12 CMV-LacZ, N=2
# In short: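 β-Gal level was the read-out, measured in a clonal C2C12 line expressing LacZ from a CMV promoter. Dose-response curves used six concentrations, 0.5 μM up to 40 μM, with duplicate points.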
# [3] = system: β-galactosidase in CMV-LacZ C2C12 myotubes; test: CMV-LacZ secondary screen in C2C12 myotubes (β-Gal stabilizing assay); conditions: for CMV-LACZ in Myotubes, signal relative to DMSO: C2C12 CMV-LacZ myotubes, fold relative to DMSO; for CMV-LACZ in Myotubes, value relative to DMSO: SU9516 analogs, C2C12 CMV-LacZ, N=2
# In short: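 A secondary screen identifies compounds that stabilize β-gal independently of the native promoter, using CMV-LacZ C2C12 cells. Curves span 0.5–40 μM at six levels, in duplicate.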
# [4] = system: α7 integrin (LacZ reporter in α7βgal+/− myoblasts); test: Myoblast α7+/LacZ integrin FDG assay (Burkin assay in myoblasts, 96-well); conditions: 96-well; for Burkin Assay in Myoblasts, signal relative to DMSO: α7+/LacZ myoblasts; for Burkin Assay in Myoblasts, value relative to DMSO: SU9516 analogs, N=3-6
structure (smiles),measurement,setting,value
Cc1cccc(Cn2cnc3c(nnn3Cc3ccc(Cl)cc3)c2=O)c1 [MLS000092785-01],"Burkin Assay in Myotubes, α7 integrin LacZ reporter signal relative to DMSO",[1]; 0.5 uM,1.027
same,"Burkin Assay in Myotubes, α7 integrin LacZ reporter signal relative to DMSO",[1]; 1 uM,0.9662
same,"Burkin Assay in Myotubes, α7 integrin LacZ reporter signal relative to DMSO",[1]; 5 uM,1.02
same,"Burkin Assay in Myotubes, α7 integrin LacZ reporter signal relative to DMSO",[1]; 10 uM,0.8586
same,"Burkin Assay in Myotubes, α7 integrin LacZ reporter signal relative to DMSO",[1]; 20 uM,0.8293
same,"Burkin Assay in Myotubes, α7 integrin LacZ reporter signal relative to DMSO",[1]; 40 uM,0.8225
same,CMV-LACZ in Myoblasts (β-galactosidase activity relative to DMSO),[2]; 0.5 uM,0.8600
same,CMV-LACZ in Myoblasts (β-galactosidase activity relative to DMSO),[2]; 1 uM,1.1653
same,CMV-LACZ in Myoblasts (β-galactosidase activity relative to DMSO),[2]; 5 uM,0.9882
same,CMV-LACZ in Myoblasts (β-galactosidase activity relative to DMSO),[2]; 10 uM,0.7351
same,CMV-LACZ in Myoblasts (β-galactosidase activity relative to DMSO),[2]; 20 uM,1.1004
same,CMV-LACZ in Myoblasts (β-galactosidase activity relative to DMSO),[2]; 40 uM,0.3235
same,"CMV-LACZ in Myotubes, signal relative to DMSO",[3]; 0.5 uM,0.9105
same,"CMV-LACZ in Myotubes, signal relative to DMSO",[3]; 1 uM,1.0143
same,"CMV-LACZ in Myotubes, signal relative to DMSO",[3]; 5 uM,1.0185
same,"CMV-LACZ in Myotubes, signal relative to DMSO",[3]; 10 uM,1.0738
same,"CMV-LACZ in Myotubes, signal relative to DMSO",[3]; 20 uM,1.0400
same,"CMV-LACZ in Myotubes, signal relative to DMSO",[3]; 40 uM,1.0500
same,"Burkin Assay in Myoblasts, signal relative to DMSO",[4]; 0.5 uM,0.9544
same,"Burkin Assay in Myoblasts, signal relative to DMSO",[4]; 1 uM,1.035
same,"Burkin Assay in Myoblasts, signal relative to DMSO",[4]; 5 uM,1.1703
same,"Burkin Assay in Myoblasts, signal relative to DMSO",[4]; 10 uM,0.9343
same,"Burkin Assay in Myoblasts, signal relative to DMSO",[4]; 20 uM,0.7833
same,"Burkin Assay in Myoblasts, signal relative to DMSO",[4]; 40 uM,0.6509
Cc1ccc2c(c1)/C(=C/c1ccccc1)C(=O)N2 [MLS001202354-01],"Burkin Assay in Myotubes, value relative to DMSO",[1]; 0.5 uM,0.8459
same,"Burkin Assay in Myotubes, value relative to DMSO",[1]; 1 uM,0.9022
same,"Burkin Assay in Myotubes, value relative to DMSO",[1]; 5 uM,0.9545
same,"Burkin Assay in Myotubes, value relative to DMSO",[1]; 10 uM,1.069
same,"Burkin Assay in Myotubes, value relative to DMSO",[1]; 20 uM,0.5824
same,"Burkin Assay in Myotubes, value relative to DMSO",[1]; 40 uM,0.5785
same,"CMV-LACZ in Myoblasts, value relative to DMSO",[2]; 0.5 uM,1.2275
same,"CMV-LACZ in Myoblasts, value relative to DMSO",[2]; 1 uM,0.9521
same,"CMV-LACZ in Myoblasts, value relative to DMSO",[2]; 5 uM,0.9669
same,"CMV-LACZ in Myoblasts, value relative to DMSO",[2]; 10 uM,0.9170
same,"CMV-LACZ in Myoblasts, value relative to DMSO",[2]; 20 uM,0.8378
same,"CMV-LACZ in Myoblasts, value relative to DMSO",[2]; 40 uM,0.7437
same,"CMV-LACZ in Myotubes, value relative to DMSO",[3]; 0.5 uM,1.0676
same,"CMV-LACZ in Myotubes, value relative to DMSO",[3]; 1 uM,0.9200
same,"CMV-LACZ in Myotubes, value relative to DMSO",[3]; 5 uM,0.8910
same,"CMV-LACZ in Myotubes, value relative to DMSO",[3]; 10 uM,1.0340
same,"CMV-LACZ in Myotubes, value relative to DMSO",[3]; 20 uM,0.7000
same,"CMV-LACZ in Myotubes, value relative to DMSO",[3]; 40 uM,0.7863
same,"Burkin Assay in Myoblasts, value relative to DMSO",[4]; 0.5 uM,1.077
same,"Burkin Assay in Myoblasts, value relative to DMSO",[4]; 1 uM,1.023
same,"Burkin Assay in Myoblasts, value relative to DMSO",[4]; 5 uM,1.036
same,"Burkin Assay in Myoblasts, value relative to DMSO",[4]; 10 uM,1.073
same,"Burkin Assay in Myoblasts, value relative to DMSO",[4]; 20 uM,0.516
same,"Burkin Assay in Myoblasts, value relative to DMSO",[4]; 40 uM,0.4275
Cc1[nH]c(C=C2C(=O)Nc3ccccc32)c(C)c1CCC(=O)O [NCGC00241113-01],"Burkin Assay in Myotubes, value relative to DMSO",[1]; 0.5 uM,1.078
same,"Burkin Assay in Myotubes, value relative to DMSO",[1]; 1 uM,1.105
same,"Burkin Assay in Myotubes, value relative to DMSO",[1]; 5 uM,0.8489
same,"Burkin Assay in Myotubes, value relative to DMSO",[1]; 10 uM,0.7678
same,"Burkin Assay in Myotubes, value relative to DMSO",[1]; 20 uM,0.7458
same,"Burkin Assay in Myotubes, value relative to DMSO",[1]; 40 uM,0.6312
same,"CMV-LACZ in Myoblasts, value relative to DMSO",[2]; 0.5 uM,1.4142
same,"CMV-LACZ in Myoblasts, value relative to DMSO",[2]; 5 uM,1.1634
same,"CMV-LACZ in Myoblasts, value relative to DMSO",[2]; 10 uM,1.1352
same,"CMV-LACZ in Myoblasts, value relative to DMSO",[2]; 20 uM,2.7827
same,"CMV-LACZ in Myoblasts, value relative to DMSO",[2]; 40 uM,3.3097
same,"CMV-LACZ in Myotubes, value relative to DMSO",[3]; 0.5 uM,0.8627
same,"CMV-LACZ in Myotubes, value relative to DMSO",[3]; 1 uM,1.3227
same,"CMV-LACZ in Myotubes, value relative to DMSO",[3]; 5 uM,0.9410
same,"CMV-LACZ in Myotubes, value relative to DMSO",[3]; 10 uM,1.0724
same,"CMV-LACZ in Myotubes, value relative to DMSO",[3]; 20 uM,0.9790
same,"CMV-LACZ in Myotubes, value relative to DMSO",[3]; 40 uM,0.9520
same,"Burkin Assay in Myoblasts, value relative to DMSO",[4]; 0.5 uM,1.011
same,"Burkin Assay in Myoblasts, value relative to DMSO",[4]; 1 uM,1.057
same,"Burkin Assay in Myoblasts, value relative to DMSO",[4]; 5 uM,0.9062
same,"Burkin Assay in Myoblasts, value relative to DMSO",[4]; 10 uM,0.8662
same,"Burkin Assay in Myoblasts, value relative to DMSO",[4]; 20 uM,0.9594
same,"Burkin Assay in Myoblasts, value relative to DMSO",[4]; 40 uM,0.9168
COC(=O)c1ccccc1NC(=O)CSc1nc(O)c(-c2ccccc2)c(=O)[nH]1 [MLS000621451-01],"Burkin Assay in Myotubes, α7 integrin LacZ reporter signal relative to DMSO",[1]; 0.5 uM,0.9471
same,"Burkin Assay in Myotubes, α7 integrin LacZ reporter signal relative to DMSO",[1]; 1 uM,0.8932
same,"Burkin Assay in Myotubes, α7 integrin LacZ reporter signal relative to DMSO",[1]; 5 uM,0.9254
same,"Burkin Assay in Myotubes, α7 integrin LacZ reporter signal relative to DMSO",[1]; 10 uM,1.071
same,"Burkin Assay in Myotubes, α7 integrin LacZ reporter signal relative to DMSO",[1]; 20 uM,0.8327
same,"Burkin Assay in Myotubes, α7 integrin LacZ reporter signal relative to DMSO",[1]; 40 uM,1.024
same,CMV-LACZ in Myoblasts (β-galactosidase activity relative to DMSO),[2]; 0.5 uM,1.0388
same,CMV-LACZ in Myoblasts (β-galactosidase activity relative to DMSO),[2]; 1 uM,1.1579
same,CMV-LACZ in Myoblasts (β-galactosidase activity relative to DMSO),[2]; 5 uM,0.9255
same,CMV-LACZ in Myoblasts (β-galactosidase activity relative to DMSO),[2]; 10 uM,1.3023
same,CMV-LACZ in Myoblasts (β-galactosidase activity relative to DMSO),[2]; 20 uM,1.2493
same,CMV-LACZ in Myoblasts (β-galactosidase activity relative to DMSO),[2]; 40 uM,1.1926
same,"CMV-LACZ in Myotubes, signal relative to DMSO",[3]; 0.5 uM,1.1114
same,"CMV-LACZ in Myotubes, signal relative to DMSO",[3]; 1 uM,0.9295
same,"CMV-LACZ in Myotubes, signal relative to DMSO",[3]; 5 uM,1.0177
same,"CMV-LACZ in Myotubes, signal relative to DMSO",[3]; 10 uM,1.1398
same,"CMV-LACZ in Myotubes, signal relative to DMSO",[3]; 20 uM,0.9853
same,"CMV-LACZ in Myotubes, signal relative to DMSO",[3]; 40 uM,0.9695
same,"Burkin Assay in Myoblasts, signal relative to DMSO",[4]; 0.5 uM,1.065
same,"Burkin Assay in Myoblasts, signal relative to DMSO",[4]; 1 uM,1.018
same,"Burkin Assay in Myoblasts, signal relative to DMSO",[4]; 5 uM,1.066
same,"Burkin Assay in Myoblasts, signal relative to DMSO",[4]; 10 uM,1.114
same,"Burkin Assay in Myoblasts, signal relative to DMSO",[4]; 20 uM,1.0713
same,"Burkin Assay in Myoblasts, signal relative to DMSO",[4]; 40 uM,1.088
Cc1cc(C)c(/C=C2\C(=O)Nc3ccccc32)[nH]1 [NCGC00094381-05],"Burkin Assay in Myotubes, value relative to DMSO",[1]; 0.5 uM,0.9234
same,"Burkin Assay in Myotubes, value relative to DMSO",[1]; 1 uM,0.931
same,"Burkin Assay in Myotubes, value relative to DMSO",[1]; 5 uM,1.047
same,"Burkin Assay in Myotubes, value relative to DMSO",[1]; 10 uM,1.319
same,"Burkin Assay in Myotubes, value relative to DMSO",[1]; 20 uM,1.05
same,"Burkin Assay in Myotubes, value relative to DMSO",[1]; 40 uM,1.138
same,"CMV-LACZ in Myoblasts, value relative to DMSO",[2]; 0.5 uM,0.8383
same,"CMV-LACZ in Myoblasts, value relative to DMSO",[2]; 5 uM,0.9614
same,"CMV-LACZ in Myoblasts, value relative to DMSO",[2]; 10 uM,0.8606
same,"CMV-LACZ in Myoblasts, value relative to DMSO",[2]; 20 uM,0.7147
same,"CMV-LACZ in Myoblasts, value relative to DMSO",[2]; 40 uM,0.8220
same,"CMV-LACZ in Myotubes, value relative to DMSO",[3]; 0.5 uM,1.0045
same,"CMV-LACZ in Myotubes, value relative to DMSO",[3]; 1 uM,0.8773
same,"CMV-LACZ in Myotubes, value relative to DMSO",[3]; 5 uM,1.2069
same,"CMV-LACZ in Myotubes, value relative to DMSO",[3]; 10 uM,2.8305
same,"CMV-LACZ in Myotubes, value relative to DMSO",[3]; 20 uM,6.8950
same,"CMV-LACZ in Myotubes, value relative to DMSO",[3]; 40 uM,18.0610
same,"Burkin Assay in Myoblasts, value relative to DMSO",[4]; 0.5 uM,0.9433
same,"Burkin Assay in Myoblasts, value relative to DMSO",[4]; 1 uM,0.9804
same,"Burkin Assay in Myoblasts, value relative to DMSO",[4]; 5 uM,0.7532
same,"Burkin Assay in Myoblasts, value relative to DMSO",[4]; 10 uM,0.7145
same,"Burkin Assay in Myoblasts, value relative to DMSO",[4]; 20 uM,0.8879
same,"Burkin Assay in Myoblasts, value relative to DMSO",[4]; 40 uM,0.7578
